This is an account of results in patent US20070123514A1, “Methods of modulating neurotrophin-mediated activity” (PainCeptor Pharma Corporation, priority 2005, published 2007).

Structures are written as SMILES.

For one assay, the system named is human TrkA (HEK_trkA: TrkA alone). The assay is described as follows: 125I-NGF binding displacement in HEK_trkA cells. Conditions: result in words. The procedure: (§1) All cells were incubated at 37° C. in 5% CO2. PC12 cells were maintained in RPMI-1640 medium supplemented with 10% fetal bovine serum (FBS). A875 human melanoma cells were maintained in DMEM with 10% FBS. HEK 293 cells were stably transfected with human TrkA plasmid (see below) and maintained in DMEM with 10% FBS and G418 (600 μg/mL) for selection.
Expression of human TrkA in HEK cells was achieved by transfecting the cells with the TrkA expression vector using Lipofectamine (Invitrogen) reagent. HEK cells were plated in 100 mm Petri dishes at a concentration of 10^6 cells per dish. The next day, a solution of DNA diluted in 1 mL OptiMEM (Invitrogen) per dish was prepared and incubated for 15 min at room temperature. […]
NGF binding was evaluated using methods familiar to those who are skilled in the art. […] Non-specific binding was determined for reference by incubating ^125I-NGF with an excess of non-radioactive NGF in the abence of compound. Following a two-hour incubation period at 4° C., ^125I-NGF bound to the cells was quantified in a gamma radiation counter following separation from unbound NGF by filtration or centrifugation through glycerol (10% in HKR). Inhibition of binding was calculated as a percent of the specific binding (calculated as the differential between ^125I-NGF binding in the absence and presence of an excess of non-radioactive NGF without compound). […]
Regarding `CC(=O)Nc1cc2c3c(cc(NC(C)=O)cc3c1)C(=O)N(c1cccc(C(=O)O)c1)C2=O` [Compound 94, 3-(5,8-Bis-acetylamino-1,3-dioxo-1H,3H-benzo[de]isoquinolin-2-yl)-benzoic acid], the “blocking of NGF binding to TrkA (dose-response curve)” value is reported as “effectively blocks NGF binding to TrkA”.

Another assay relates to PC12 (TrkA & p75). As to the kind of experiment: 125I-NGF binding displacement in PC12 cells. Also on record: species or system rat. Conditions: PC12 cells expressing TrkA and p75; result in words. The procedure: The method for acquiring the PC12 data described in Table 1 is described herein in Example 1. Each experiment was done at least once with an n value of 4 for each data point. (n/a=not acquired)
as §1
NGF binding was evaluated using methods familiar to those who are skilled in the art. Briefly, cells expressing one or both NGF receptors (PC12: TrkA+p75; A875: p75 alone; HEK_trkA: TrkA alone) were harvested by replacing the medium with calcium-magnesium free balanced salt (Grey's) solution and incubating at 37° C. for 15 min. For NGF binding, cells were resuspended at a concentration of 2×10^6 cells/mL in HEPES-Krebs-Ringer (HKR) buffer (10 mM HEPES; 125 mM NaCl; 4.8 mM KCl; 1.3 mM CaCl2; 1.2 mM MgSO4; 1.2 mM KH2PO4; 1 mg/ml BSA; 1 mg/ml glucose; pH 7.4) and exposed to ^125I-NGF (˜0.1 nM) in the presence or absence of varying concentrations of the compound. Non-specific binding was determined for reference by incubating ^125I-NGF with an excess of non-radioactive NGF in the abence of compound. Following a two-hour incubation period at 4° C., ^125I-NGF bound to the cells was quantified in a gamma radiation counter following separation from unbound NGF by filtration or centrifugation through glycerol (10% in HKR). Inhibition of binding was calculated as a percent of the specific binding (calculated as the differential between ^125I-NGF binding in the absence and presence of an excess of non-radioactive NGF without compound). Dose-response inhibition curves were typically generated with seven concentrations of a given compound, with three replicates for each concentration. For most compounds, multiple dose-response curves were generated.
The IC50 data shown in Table 1 were acquired using the procedure described herein using PC12 cells.
For the molecule `O=C(O)c1ccc(Cl)c(N2C(=O)c3cc([N+](=O)[O-])cc4cc([N+](=O)[O-])cc(c34)C2=O)c1` [Compound 7, 4-Chloro-3-(5,8-dinitro-1,3-dioxo-1H,3H-benzol[de]isoquinolin-2-yl)-benzoic acid], the “blocking of NGF binding (dose-response curve)” value is “effectively blocks NGF binding”.
On to `O=C1c2cccc3cc([N+](=O)[O-])cc(c23)C(=O)N1c1ccc(S(=O)(=O)O)cc1` [Compound 71, 4-(5-Nitro-1,3-dioxo-1H,3H-benzo[de]isoquinolin-2-yl)-benzenesulfonic acid], for which the “blocking of NGF binding (dose-response curve)” value is given as “effectively block NGF binding”.
Take `CC(=O)Nc1cc2c3c(cc(NC(C)=O)cc3c1)C(=O)N(c1cccc(C(=O)O)c1)C2=O` [Compound 94, 3-(5,8-Bis-acetylamino-1,3-dioxo-1H,3H-benzo[de]isoquinolin-2-yl)-benzoic acid]: the “blocking of NGF binding (dose-response curve)” value is recorded as “effectively blocks NGF binding”.

The same assay, now with this note: PC12 cells, compound concentration 25 μM.
As to `O=C(O)c1ccc(Cl)c(N2C(=O)c3cccc4c(C(=O)c5ccccc5)ccc(c34)C2=O)c1` [Compound 98, 3-(6-Benzoyl-1,3-dioxo-1H,3H-benzo[de]isoquinolin-2-yl)-4-chloro-benzoic acid], the “PC12 (TrkA & p75) Single point (% max binding) Mean” value (“PC12 … (% max binding) Mean” below) is “*** (0 > *** > 30)”.
As to `O=C(O)c1ccc(Cl)c(N2C(=O)c3cccc4c(C(=O)O)ccc(c34)C2=O)c1` [Compound 99, 2-(5-Carboxy-2-chloro-phenyl)-1,3-dioxo-2,3-dihydro-1H-benzo[de]isoquinoline-6-carboxylic acid], the “PC12 … (% max binding) Mean” value is on record as “* (* > 50)”.
On to `CCOC(=O)c1cccc(N2C(=O)c3cccc4cccc2c34)c1` [Compound 105, 3-(2-Oxo-2H-benzo[cd]indol-1-yl)-benzoic acid ethyl ester], for which the “PC12 … (% max binding) Mean” value is given as “* (* > 50)”.
Turning to `CCOC(=O)c1cccc(N2C(=O)c3cccc4c([N+](=O)[O-])ccc2c34)c1` [Compound 106, 3-(6-Nitro-2-oxo-2H-benzo[cd]indol-1-yl)-benzoic acid ethyl ester], the “PC12 … (% max binding) Mean” value is given as “* (* > 50)”.
With `O=C(O)c1cccc(N2C(=O)c3cccc4cccc2c34)c1` [Compound 107, 3-(2-Oxo-2H-benzo[cd]indol-1-yl)-benzoic acid], the “PC12 … (% max binding) Mean” value is “** (30 > ** > 50)”.
The same measure, in the same setting: the result for `CCOC(=O)c1cc(N2C(=O)c3cccc4c([N+](=O)[O-])ccc2c34)ccc1Cl` [Compound 108, 2-Chloro-5-(6-nitro-2-oxo-2H-benzo[cd]indol-1-yl)-benzoic acid ethyl ester] reads “* (* > 50)”; that for `CC(=O)Nc1ccc(C(=O)O)cc1N1C(=O)c2cccc3cc([N+](=O)[O-])cc(c23)C1=O` [Compound 110, 4-Acetylamino-3-(5-nitro-1,3-dioxo-1H,3H-benzo[de]isoquinolin-2-yl)-benzoic acid], “** (30 > ** > 50)”; that for `O=C(O)c1ccc(Cl)c(N2C(=O)c3cccc4c(Cl)ccc(c34)C2=O)c1` [Compound 111, 4-Chloro-3-(6-chioro-1,3-dioxo-1H,3H-benzo[de]isoquinolin-2-yl)-benzoic acid], “** (30 > ** > 50)”.

Still in this assay, the particulars now being: PC12 cells, compound concentration 50 μM.
In the case of `O=C(O)c1cc(Cl)cc(N2C(=O)c3cccc4cc([N+](=O)[O-])cc(c34)C2=O)c1Cl` [Compound 51, 2,5-Dichloro-3-(5-nitro-1,3-dioxo-1H,3H-benzo[de]isoquinolin-2-yl)-benzoic acid], the “PC12 … (% max binding) Mean” value is “* (* > 50)”.
Consider `O=C(O)c1ccc(Cl)c(N2C(=O)c3cc(Br)cc4cc([N+](=O)[O-])cc(c34)C2=O)c1` [Compound 53, 3-(5-Bromo-8-nitro-1,3-dioxo-1H,3H-benzo[de]isoquinolin-2-yl)-4-chloro-benzoic acid], for which the “PC12 … (% max binding) Mean” value was “* (* > 50)”.
Same read-out and setting: the result for `Nc1cc2c3c(cc(Br)cc3c1)C(=O)N(c1cc(C(=O)O)ccc1Cl)C2=O` [Compound 56, 3-(5-Amino-8-bromo-1,3-dioxo-1H,3H-benzo[de]isoquinolin-2-yl)-4-chloro-benzoic acid] reads “* (* > 50)”; that for `CC(=O)Nc1cc2c3c(cc(Br)cc3c1)C(=O)N(c1cc(C(=O)O)ccc1Cl)C2=O` [Compound 57, 3-(5-Acetylamino-8-bromo-1,3-dioxo-1H,3H-benzo[de]isoquinolin-2-yl)-4-chloro-benzoic acid], “** (30 > ** > 50)”; that for `Nc1cc2c3c(cc(N)cc3c1)C(=O)N(c1ccc(S(=O)(=O)O)cc1)C2=O` [Compound 118, 4-(5,8-Diamino-1,3-dioxo-1H,3H-benzo[de]isoquinolin-2-yl)-benzenesulfonic acid], “** (30 > ** > 50)”.

The same assay, now with this note: PC12 cells, concentration cell printed as '═'.
Regarding `CC(=O)Nc1cc2c3c(cc(NC(C)=O)cc3c1)C(=O)N(c1ccc(S(=O)(=O)O)cc1)C2=O` [Compound 119, 4-(5,8-Bis-acetylamino-1,3-dioxo-1H,3H-benzol[de]isoquinolin-2-yl)-benzenesulfonic acid], the “PC12 … (% max binding) Mean” value was “** (30 > ** > 50)”.
